Assay results as given in patent publication US6737383B1, “Herbicidal oxadiazolidines” (priority 1999, dated 2004).

Assays:
bedstraw = assay: Test B pre/postemergence bedstraw; type: in vivo, Galium aparine
Outline: (§1)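 Response is a visual 0-to-10 score relative to untreated plants, where 0 means no effect and 10 means complete control, taken twelve to sixteen days after application. Treatments went onto soil at planting and onto foliage of 1- to 4-leaf plants, using a surfactant-containing non-phytotoxic solvent.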

blackgrass = assay: Test B pre/postemergence blackgrass; type: in vivo, Alopecurus myosuroides
Outline: as §1

surinam grass = assay: Test B pre/postemergence surinam grass; type: in vivo, Brachiaria decumbens
Outline: as §1

cocklebur = assay: Test B pre/postemergence cocklebur; type: in vivo, Xanthium strumarium
Outline: as §1

giant foxtail = assay: Test B pre/postemergence giant foxtail; type: in vivo, Setaria faberii
Outline: as §1

morningglory = assay: Test B pre/postemergence morningglory; type: in vivo, Ipomoea hederacea
Outline: as §1

pigweed = assay: Test B pre/postemergence pigweed; type: in vivo, Amaranthus retroflexus
Outline: as §1

rape = assay: Test B pre/postemergence rape; type: in vivo, Brassica napus
Outline: as §1

soybean = assay: Test B pre/postemergence soybean; type: in vivo, Glycine max
Outline: as §1

velvetleaf = assay: Test B pre/postemergence velvetleaf; type: in vivo, Abutilon theophrasti; settings: for Plant response rating, Velvetleaf: Rate 250 g/ha
Outline: as §1

wheat = assay: Test B pre/postemergence wheat; type: in vivo, Triticum aestivum; settings: for Plant response rating, Wheat: Rate 250 g/ha
Outline: as §1

wild oat = assay: Test B pre/postemergence wild oat; type: in vivo, Avena fatua; settings: for Plant response rating, Wild oats: Rate 250 g/ha
Outline: as §1

purple nutsedge = assay: Test B pre/postemergence purple nutsedge; type: in vivo, Cyperus rotundus
Outline: as §1

smallflower flatsedge = assay: Test B flood test smallflower flatsedge; type: in vivo, Cyperus difformis
Outline: (§2)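 Plants were grown to the 2-leaf stage before treatment with test chemical, then held in a greenhouse for twelve to sixteen days. Injury was visually rated against untreated controls on a 0–10 scale, where 0 is no effect and 10 is complete control.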

duck salad = assay: Test B flood test duck salad; type: in vivo, Heteranthera limosa
Outline: as §2

bamyardgrass = assay: Test B flood test barnyardgrass; type: in vivo, Echinochloa crus-galli
Outline: as §2

[1] = Postemergence, Rate 62 g/ha, scale 0 to 10, 0 is no effect, 10 is complete control
[2] = Postemergence, Rate 250 g/ha, scale 0 to 10, 0 no effect, 10 complete control
[3] = Preemergence, Rate 62 g/ha, scale 0 to 10 (0 no effect, 10 complete control)
[4] = Preemergence, Rate 125 g/ha, scale 0 to 10 (0 no effect, 10 complete control)
[5] = Preemergence, Rate 250 g/ha, scale of 0 to 10 where 0 is no effect and 10 is complete control
[6] = Preemergence, Rate 500 g/ha, scale 0 to 10 (0 no effect, 10 complete control)
[7] = Rate 125 g/ha, Postemergence, scale 0 to 10, 0 no effect, 10 complete control
[8] = Postemergence, Rate 125 g/ha, scale of 0 to 10 where 0 is no effect and 10 is complete control
[9] = Rate 62 g/ha, Postemergence, scale of 0 to 10 where 0 is no effect and 10 is complete control
[10] = Rate 500 g/ha, Postemergence, scale 0 to 10, 0 no effect, 10 complete control
[11] = Rate 250 g/ha, Postemergence, scale 0 to 10, 0 is no effect, 10 is complete control
[12] = Preemergence, Rate 125 g/ha, 0 is no effect, 10 is complete control
[13] = Preemergence, scale of 0 to 10 where 0 is no effect and 10 is complete control
[14] = Postemergence, scale 0 to 10, 0 is no effect, 10 is complete control
[15] = Postemergence (flood test species), Rate 125 g/ha, scale of 0 to 10 where 0 is no effect and 10 is complete control
[16] = Rate 62 g/ha, Postemergence section, flood test species, scale of 0 to 10 where 0 is no effect and 10 is complete control
[17] = Rate 250 g/ha, headed Pre-emergence (flood test species), scale 0 to 10 (0 no effect, 10 complete control)
[18] = Rate 500 g/ha, headed Pre-emergence (flood test species), scale 0 to 10 (0 no effect, 10 complete control)
[19] = Rate 500 g/ha, listed under Postemergence (flood test species), scale 0 to 10, 0 no effect, 10 complete control
[20] = Rate 2000 g/ha, Pre-emergence (as headed), scale 0 to 10
[21] = Rate 1000 g/ha, Pre-emergence (as headed), scale 0 to 10
[22] = flood test, listed under Postemergence, Rate 250 g/ha, scale 0 to 10, 0 no effect, 10 complete control

## CC(C)N(C(=O)n1oc(=O)n(C(C)C)c1=O)c1ccc(F)cc1F [Compound 109]
bedstraw; [1]
  Bedstraw plant response rating: 6
bedstraw; [2]
  Bedstraw plant response rating: 9
bedstraw; [3]
  Bedstraw plant response rating: 8
bedstraw; [4]
  Plant response rating, Bedstraw: 10
bedstraw; [5]
  Plant response rating, Bedstraw: 10
bedstraw; [6]
  Bedstraw plant response rating: 10
bedstraw; [7]
  Bedstraw plant response rating: 8
blackgrass; [8]
  Blackgrass plant response rating: 8
blackgrass; [2]
  Blackgrass plant response rating: 8
blackgrass; [3]
  Blackgrass plant response rating: 8
blackgrass; [4]
  Plant response rating, Blackgrass: 8
blackgrass; [5]
  Plant response rating, Blackgrass: 10
blackgrass; [6]
  Blackgrass plant response rating: 10
blackgrass; [9]
  Blackgrass plant response rating: 7
blackgrass; [10]
  Blackgrass plant response rating: 8
Surinam grass; [1]
  B. signalgrass plant response rating: 7
Surinam grass; [2]
  B. signalgrass plant response rating: 8
Surinam grass; [3]
  B. signalgrass plant response rating: 9
Surinam grass; [4]
  Plant response rating, B. signalgrass: 9
Surinam grass; [5]
  Plant response rating, B. signalgrass: 10
Surinam grass; [6]
  B. signalgrass plant response rating: 10
Surinam grass; [7]
  B. signalgrass plant response rating: 7
Surinam grass; Rate 500 g/ha, Postemergence, scale of 0 to 10 where 0 is no effect and 10 is complete control
  B. signalgrass plant response rating: 8
cocklebur; [8]
  Cocklebur plant response rating: 3
cocklebur; [2]
  Cocklebur plant response rating: 4
cocklebur; [3]
  Cocklebur plant response rating: 0
cocklebur; [4]
  Plant response rating, Cocklebur: 0
cocklebur; [5]
  Plant response rating, Cocklebur: 0
cocklebur; [6]
  Cocklebur plant response rating: 5
cocklebur; [9]
  Cocklebur plant response rating: 2
cocklebur; [10]
  Cocklebur plant response rating: 5
Giant foxtail; [8]
  Giant foxtail plant response rating: 9
Giant foxtail; [2]
  Giant foxtail plant response rating: 9
Giant foxtail; [3]
  Giant foxtail plant response rating: 10
Giant foxtail; [4]
  Plant response rating, Giant foxtail: 10
Giant foxtail; [5]
  Plant response rating, Giant foxtail: 10
Giant foxtail; [6]
  Giant foxtail plant response rating: 10
Giant foxtail; [9]
  Giant foxtail plant response rating: 8
Giant foxtail; [10]
  Giant foxtail plant response rating: 9
morningglory; [8]
  Morningglory plant response rating: 3
morningglory; [2]
  Morningglory plant response rating: 5
morningglory; [3]
  Morningglory plant response rating: 0
morningglory; [4]
  Plant response rating, Morningglory: 5
morningglory; [5]
  Plant response rating, Morningglory: 6
morningglory; [6]
  Morningglory plant response rating: 10
morningglory; [9]
  Morningglory plant response rating: 3
morningglory; [10]
  Morningglory plant response rating: 5
pigweed; [8]
  Redroot pigweed plant response rating: 5
pigweed; [3]
  Redroot pigweed plant response rating: 10
pigweed; [4]
  Plant response rating, Redroot pigweed: 10
pigweed; [5]
  Plant response rating, Redroot pigweed: 10
pigweed; [6]
  Redroot pigweed plant response rating: 10
pigweed; [9]
  Redroot pigweed plant response rating: 3
pigweed; [11]
  Plant response rating, Redroot pigweed: 8
pigweed; [10]
  Redroot pigweed plant response rating: 8
rape; [8]
  Rape plant response rating: 3
rape; [2]
  Rape plant response rating: 4
rape; [3]
  Rape plant response rating: 7
rape; [4]
  Plant response rating, Rape: 8
rape; [5]
  Plant response rating, Rape: 9
rape; [6]
  Rape plant response rating: 10
rape; [9]
  Rape plant response rating: 3
rape; [10]
  Rape plant response rating: 6
soybean; [8]
  Soybean plant response rating: 6
soybean; [3]
  Soybean plant response rating: 0
soybean; [4]
  Plant response rating, Soybean: 7
soybean; [5]
  Plant response rating, Soybean: 8
soybean; [6]
  Soybean plant response rating: 9
soybean; [9]
  Soybean plant response rating: 4
soybean; [11]
  Plant response rating, Soybean: 7
soybean; [10]
  Soybean plant response rating: 7
velvetleaf; [8]
  Velvetleaf plant response rating: 2
velvetleaf; [3]
  Velvetleaf plant response rating: 5
velvetleaf; [12]
  Velvetleaf plant response rating (0 to 10 scale): 7
velvetleaf; [13]
  Plant response rating, Velvetleaf: 10
velvetleaf; [6]
  Velvetleaf plant response rating: 10
velvetleaf; [9]
  Velvetleaf plant response rating: 0
velvetleaf; [14]
  Plant response rating, Velvetleaf: 6
velvetleaf; [10]
  Velvetleaf plant response rating: 6
wheat; [8]
  Wheat plant response rating: 0
wheat; [3]
  Wheat plant response rating: 0
wheat; [12]
  Wheat plant response rating (0 to 10 scale): 5
wheat; [13]
  Plant response rating, Wheat: 9
wheat; [6]
  Wheat plant response rating: 10
wheat; [9]
  Wheat plant response rating: 0
wheat; [14]
  Plant response rating, Wheat: 5
wheat; [10]
  Wheat plant response rating: 6
Wild oat; [8]
  Wild oats plant response rating: 0
Wild oat; [3]
  Wild oats plant response rating: 8
Wild oat; [12]
  Wild oats plant response rating (0 to 10 scale): 10
Wild oat; [13]
  Plant response rating, Wild oats: 10
Wild oat; [6]
  Wild oats plant response rating: 10
Wild oat; [9]
  Wild oats plant response rating: 0
Wild oat; [14]
  Plant response rating, Wild oats: 4
Wild oat; [10]
  Wild oats plant response rating: 7
Purple nutsedge; [8]
  Nutsedge plant response rating: 0
Purple nutsedge; [2]
  Nutsedge plant response rating: 0
Purple nutsedge; [3]
  Nutsedge plant response rating: 0
Purple nutsedge; [4]
  Plant response rating, Nutsedge: 0
Purple nutsedge; [5]
  Plant response rating, Nutsedge: 0
Purple nutsedge; [6]
  Nutsedge plant response rating: 0
Purple nutsedge; [9]
  Nutsedge plant response rating: 0
Purple nutsedge; [10]
  Nutsedge plant response rating: 4
Smallflower flatsedge; [15]
  S. Flatsedge plant response rating: 0
Smallflower flatsedge; Pre-emergence, Rate 1000 g/ha, scale 0 to 10 (0 no effect, 10 complete control)
  S. Flatsedge plant response rating: 8
Smallflower flatsedge; [16]
  S. Flatsedge plant response rating: 0
Smallflower flatsedge; Rate 250 g/ha, Postemergence (flood test), scale 0 to 10, 0 is no effect, 10 is complete control
  Plant response rating, S. Flatsedge: 0
Smallflower flatsedge; [17]
  S. Flatsedge plant response rating: 0
Smallflower flatsedge; [18]
  Plant response rating, S. Flatsedge: 0
Smallflower flatsedge; [19]
  S. Flatsedge plant response rating: 0
Smallflower flatsedge; [20]
  S. Flatsedge plant response rating: 8
Duck salad; [15]
  Ducksalad plant response rating: 0
Duck salad; [16]
  Ducksalad plant response rating: 0
Duck salad; [17]
  Ducksalad plant response rating: 0
Duck salad; [18]
  Plant response rating, Ducksalad: 0
Duck salad; [19]
  Ducksalad plant response rating: 0
Duck salad; [21]
  Ducksalad plant response rating: 1
Duck salad; [20]
  Ducksalad plant response rating: 6
Duck salad; [22]
  Ducksalad plant response rating: 0
bamyardgrass; [1]
  Barnyardgrass plant response rating: 0
bamyardgrass; Rate 125 g/ha, Postemergence section (flood test species), scale 0 to 10, 0 no effect, 10 complete control
  Barnyardgrass plant response rating: 0
bamyardgrass; [17]
  Barnyardgrass plant response rating: 0
bamyardgrass; [18]
  Plant response rating, Barnyardgrass: 0
bamyardgrass; [19]
  Barnyardgrass plant response rating: 0
bamyardgrass; [21]
  Barnyardgrass plant response rating: 8
bamyardgrass; Rate 2000 g/ha, Pre-emergence (as headed), scale 0 to 10, 0 no effect, 10 complete control
  Barnyardgrass plant response rating: 9
bamyardgrass; [22]
  Barnyardgrass plant response rating: 0
